We go through nine compounds from patent publication US9328093B2, “Selective inhibitors of ubiquitin specific protease 7, the pharmaceutical compositions thereof and their therapeutic applications” (HYBRIGENICS SA, priority 2010, dated 2016).

The target of this assay is T1, USP7 (Homo sapiens, UniProt Q93009).
T1 construct: Full-length wild-type human USP7 and its catalytic mutant (cysteine 223 replaced by alanine, C223A) were produced as N-terminally His-tagged fusions; His (N); made in house; host or cells: Spodoptera frugiperda Sf9 (or High Five) insect cells, baculovirus pFastBac-HT-B
Briefly: USP7 activity assay (Ub-AMC substrate). Type of assay: biochemical. The conditions noted are these: Ub-AMC 300 nM, USP7 100 pM, 30 min pre-incubation. The text has this:
The cDNA encoding USP7 was obtained by PCR amplification from placenta mRNA. USP7 cDNA was subcloned by PCR into a baculovirus expression vector (pFastBac-HT; Invitrogen). Full-length wild-type human USP7 and its catalytic mutant (cysteine 223 replaced by alanine, C223A) were produced as N-terminally His-tagged fusions in Spodoptera frugiperda cells (Sf9, Invitrogen), using the Bac-to-Bac Baculovirus system from Invitrogen according to the manufacturer's instructions. pFastBac-HT-B-USP7 was used to transform DH10bac cells (Invitrogen), and blue/white selection was carried out on X-gal/IPTG agar plates. Bacmid DNA was prepared by an alkaline lysis procedure. The integrity of the bacmid minipreps and their orientation were checked by PCR, using generic and specific primers. Sf9 insect cells were cultured in InsectXpress medium (Cambrex) at 27° C. and transfected with the corresponding bacmid, using GeneShuttle 40 (Q-BIOgen). Viruses were recovered in the supernatant 72 h after transfection. Viruses were amplified by infecting insect cells (Sf9 or High Five cells; invitrogen) in 50 ml InsectXpress medium in a 150 cm^2 cell culture flask with 500 μl of the supernatant from transfected Sf9 cells. Following the second round of amplification, infected cells were recovered by rapid SDS lysis, boiled for 5 min at 100° C., sonicated briefly and centrifuged for 20 min at 14,000 g. Expression levels in infected Sf9 cells were compared with those in uninfected cells. Fusion proteins were then allowed to bind to TALON beads (BD Biosciences, TALON metal affinity resin) for 30 min at 4° C. with gentle rocking. Beads were extensively washed (50 mM sodium phosphate buffer pH 7.0, 500 mM NaCl, 10 mM Imidazole, 0.5% Triton X-100 and 10% glycerol) and bound proteins were eluted in wash buffer supplemented with 250 mM Imidazole (Sigma). Eluted fractions were resolved on 4-12% NuPAGE gels (Novex, Invitrogen). Fractions containing high concentrations of purified proteins (purity >95%) were dialyzed (20 mM Tris HCl pH 7.6, 200 mM NaCl, 1 mM DTT, 1 mM EDTA and 10% glycerol) were aliquoted and snap frozen in liquid nitrogen before storage at −80° C.
USP7 was diluted in USP buffer (50 mM Tris HCl; 0.5 mM EDTA; 5 mM DTT; 0.01% Triton X-100; Bovine Serum Albumin 0.05 mg·ml^−1 pH7.6). Compounds stocks (10 mM) were stored at −20° C. in DMSO. Compounds were tested at different concentrations: from 200 μM to 91 nM.
Reactions were performed as duplicates in Black 384 well plates (small volumes microplates; Greiner; 10 μl final reaction volume). The substrate concentration for USP7 was 300 nM Ub-AMC (Chem. Biol., 2003, 10, p. 837-846) (Boston Biochem). The concentrations of the enzyme (USP7) in specificity assays was 100 pM. The concentrations were determined in order to perform specificity assays under initial velocities at fixed substrate concentration. Compounds were pre-incubated with enzymes for 30 minutes at 25° C. Reactions were initiated by addition of substrate to the plates containing the enzymes (+/− compounds) diluted in assay buffer. Reactions were incubated for 60 minutes at 37° C. Reactions were stopped by adding acetic acid (100 mM final). Readings were performed on a Pherastar Fluorescent Reader (BMG). λ
Emission 380 nm; λ Excitation=460 nm. Data (mean values +/− standard deviation) were analyzed as % of control (no compound) and plotted as percentage versus the Log of the compound concentration using GraphPad (Prism). Data were fitted to a sigmoidal model (variable slope).
The compound `COc1ccc(CN2CCC(CNC(=O)c3ccc4c(Cl)c5c(nc4c3)CCCC5)CC2)cc1` [Example 22, 9-chloro-N-((1-(4-methoxybenzyl)piperidin-4-yl)methyl)-5,6,7,8-tetrahydroacridine-3-carboxamide] registered an IC50 of 27.4 µM.

As for `CN1CCCC1CCNC(=O)c1ccc2c(Cl)c3c(nc2c1)CCCC3` (stereo not drawn) [Example 17, 9-chloro-N-(2-(1-methylpyrrolidin-2-yl)ethyl)-5,6,7,8-tetrahydroacridino-3-carboxamide], the IC50 amounted to 13.7 µM.

Compound `CN(C)c1ccc(CN2CCC(CNC(=O)c3ccc4c(Cl)c5c(nc4c3)CCCC5)CC2)cc1` [Example 23] had an IC50 of 33.1 µM.

As for `O=C(Nc1cccc(CN2CCCC2)c1)c1ccc2c(Cl)c3c(nc2c1)CCCC3` [Example 19, 9-chloro-N-(3-(pyrrolidin-1-ylmethyl)phenyl)-5.6,7,8-tetrahydroacridine-3-carboxamide], it took 8.2 µM to reach half-maximal inhibition (IC50).

`O=C(NCc1ccc(CN2CCCC2)cc1)c1ccc2c(Cl)c3c(nc2c1)CCCC3` [Example 21, 9-chloro-N-(4-(pyrrolidin-1-ylmethyl)benzyl)-5,6,7,8-tetrahydroacridine-3-carboxamide] showed an IC50 of 16.3 µM.

In turn, `O=C(NCC1CCNCC1)c1ccc2c(Cl)c3c(nc2c1)CCCC3` [Example 24, 9-chloro-N-((piperidin-4-yl)methyl)-5,6,7,8-tetrahydroacridine-3-carboxamide] came in with an IC50 of 45.2 µM.

Turning to `O=C(NCc1cccc(CN2CCCC2)c1)c1ccc2c(Cl)c3c(nc2c1)CCCC3` [Example 18, 9-chloro-N-(3-(pyrrolidin-1-ylmethyl)benzyl)-5,6,7,8-tetrahydroacridine-3-carboxamide], the IC50 stood at 18.3 µM.

Turning to `CC1CCCCN1CCCNC(=O)c1ccc2c(Cl)c3c(nc2c1)CCCC3` (stereo not drawn) [Example 20, 9-chloro-N-(3-(2-methylpiperidin-1-yl)propyl)-516,7,8-tetrahydroacridine-3-carboxamide], the IC50 came out at 45.5 µM.

The compound `O=C(NCC(CN1CCCC1)C(O)c1ccccc1)c1ccc2c(Cl)c3c(nc2c1)CCCC3` (stereo not drawn) [Example 25, 9-chloro-N-(3-hydroxy-3-phenyl-2-pyrrolidin-1-ylmethylpropyl)-5,6,7,8-tetrahydroacridine-3-carboxamide] had an IC50 of 59.5 µM.
